Measured values as given in US20250320213A1, “Nitrogen-Containing Heterocyclic Compounds” (Pfizer Inc., priority 2024, published 2025).

Tests used:
[1] = system: CCL17 secretion in peripheral human whole blood; assay: Human Whole Blood (HWB) CCL17 TR-FRET Assay (IL-13 stimulated CCL17 secretion); type: cell-based; details: Homo sapiens, 48 h, human whole blood, 10 ng/mL IL13, 48 hours
In short: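 Compounds are titrated (11 points, 3-fold, duplicate) into fresh heparinized human whole blood and held 2 h at 37 °C before IL-13 challenge (10 ng/mL final). After 48 h at 37 °C, serum CCL17 is measured by TR-FRET sandwich assay and IC50 values are calculated.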

[2] = target: T1, STAT6 (Homo sapiens, UniProt P42226); assay: STAT6 Reporter Luciferase Assay (IL-13 stimulated HaCaT keratinocyte NanoLuc reporter cells); type: cell-based; details: IL-13 stimulated HaCaT STAT6 NanoLuc reporter cells; read-out: Reporter EC50
T1 construct: stably transfected HaCaT keratinocyte cell line, which expresses NanoLuc luciferase reporter gene under the transcriptional control of the STAT6 responsive promoter; endogenous in cells; host or cells: HaCaT keratinocyte reporter cell line (stably transfected with a NanoLuc reporter)
T1 sequence (P42226 1-847): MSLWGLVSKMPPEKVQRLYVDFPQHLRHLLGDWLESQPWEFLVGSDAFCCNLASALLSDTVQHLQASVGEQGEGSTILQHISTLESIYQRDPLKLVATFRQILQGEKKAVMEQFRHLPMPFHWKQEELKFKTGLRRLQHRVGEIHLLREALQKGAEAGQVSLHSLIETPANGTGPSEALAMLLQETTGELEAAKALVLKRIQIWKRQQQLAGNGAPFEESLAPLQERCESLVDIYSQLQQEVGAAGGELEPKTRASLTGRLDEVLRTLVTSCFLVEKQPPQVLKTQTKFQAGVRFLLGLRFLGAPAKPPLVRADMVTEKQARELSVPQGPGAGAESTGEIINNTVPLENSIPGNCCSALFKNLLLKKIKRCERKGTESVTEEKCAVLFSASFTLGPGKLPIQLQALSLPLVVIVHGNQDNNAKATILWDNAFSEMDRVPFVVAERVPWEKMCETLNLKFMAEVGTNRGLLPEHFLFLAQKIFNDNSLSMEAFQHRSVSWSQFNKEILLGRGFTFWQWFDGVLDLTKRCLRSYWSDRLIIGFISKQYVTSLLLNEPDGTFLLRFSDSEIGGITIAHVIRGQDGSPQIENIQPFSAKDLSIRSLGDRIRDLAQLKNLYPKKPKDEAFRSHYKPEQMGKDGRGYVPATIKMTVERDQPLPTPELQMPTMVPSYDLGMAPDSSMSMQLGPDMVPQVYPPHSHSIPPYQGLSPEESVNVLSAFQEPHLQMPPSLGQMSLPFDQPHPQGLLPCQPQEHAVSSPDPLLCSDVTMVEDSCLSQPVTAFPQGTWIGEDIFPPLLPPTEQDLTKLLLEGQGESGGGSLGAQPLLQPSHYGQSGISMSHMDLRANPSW
In short: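 Stably transfected HaCaT cells carrying NanoLuc under the STAT6-responsive IL-13Ra2 promoter were pre-treated with compound (11-point, 4-fold series, duplicate) for 2 h at 37 °C, then stimulated with 0.12 nM IL-13 for 4 h. Nano-Glo luminescence was read after 15 min.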

IC50 [1] [nM] | EC50 [2] [nM] | SMILES
37 | 4 | CNC(=O)c1ccc(CNC(=O)c2nn(C(C)C)c3c2CN(c2ccc(C(=O)N(C)C)cc2)C[C@@H]3C)cc1 [Example 605, (S)-5-(4-(dimethylcarbamoyl)phenyl)-1-isopropyl-7-methyl-N-(4-(methylcarbamoyl)benzyl)-4,5,6,7-tetrahydro-1H-pyrazolo[4,3-c]pyridine-3-carboxamide]
9 | 1 | CC(C)n1nc(C(=O)NCc2ccc(NC(=O)N3CCN(C)CC3)c(F)c2)c2c1[C@@H](C)CN(c1ccc(C(=O)N(C)C)cn1)C2 [Example 606, (S)-5-(5-(dimethylcarbamoyl)pyridin-2-yl)-N-(3-fluoro-4-(4-methylpiperazine-1-carboxamido)benzyl)-1-isopropyl-7-methyl-4,5,6,7-tetrahydro-1H-pyrazolo[4,3-c]pyridine-3-carboxamide]
21 | 2 | CC(C)n1nc(C(=O)NCc2ccc(NC(=O)N3CCCN(C)CC3)c(F)c2)c2c1[C@@H](C)CN(c1ccc(C(=O)N(C)C)cn1)C2 [Example 607, (S)-5-(5-(dimethylcarbamoyl)pyridin-2-yl)-N-(3-fluoro-4-(4-methyl-1,4-diazepane-1-carboxamido)benzyl)-1-isopropyl-7-methyl-4,5,6,7-tetrahydro-1H-pyrazolo[4,3-c]pyridine-3-carboxamide]
16 | 1 | CC(C)n1nc(C(=O)NCc2ccc(NC(=O)N3CC4(CCN(C)CC4)C3)c(F)c2)c2c1[C@@H](C)CN(c1ccc(C(=O)N(C)C)cn1)C2 [Example 608, (S)-5-(5-(dimethylcarbamoyl)pyridin-2-yl)-N-(3-fluoro-4-(7-methyl-2,7-diazaspiro[3.5]nonane-2-carboxamido)benzyl)-1-isopropyl-7-methyl-4,5,6,7-tetrahydro-1H-pyrazolo[4,3-c]pyridine-3-carboxamide]
7 | 1 | CC(C)n1nc(C(=O)NCc2ccc(NC(=O)N3CCN(C)CC3)cc2)c2c1[C@@H](C)CN(c1ccc(-n3ccccc3=O)cn1)C2 [Example 609, (S)-1-isopropyl-7-methyl-N-(4-(4-methylpiperazine-1-carboxamido)benzyl)-5-(2-oxo-2H-[1,3′-bipyridin]-6′-yl)-4,5,6,7-tetrahydro-1H-pyrazolo[4,3-c]pyridine-3-carboxamide]
17 | 2 | CC(C)n1nc(C(=O)NCc2ccc(NC(=O)N3CCN(C)CC3)c(F)c2)c2c1[C@@H](C)CN(c1ccc(-n3ccccc3=O)cn1)C2 [Example 610, (S)-N-(3-fluoro-4-(4-methylpiperazine-1-carboxamido)benzyl)-1-isopropyl-7-methyl-5-(2-oxo-2H-[1,3′-bipyridin]-6′-yl)-4,5,6,7-tetrahydro-1H-pyrazolo[4,3-c]pyridine-3-carboxamide]
5 | 0.2 | CC(C)n1nc(C(=O)NCc2ccc(NC(=O)N3CCN(C)CC3)cc2)c2c1[C@@H](C)CN(c1ccc(C(=O)N3Cc4cccnc4C3)cn1)C2 [Example 611, (S)-5-(5-(6,7-dihydro-5H-pyrrolo[3,4-b]pyridine-6-carbonyl)pyridin-2-yl)-1-isopropyl-7-methyl-N-(4-(4-methylpiperazine-1-carboxamido)benzyl)-4,5,6,7-tetrahydro-1H-pyrazolo[4,3-c]pyridine-3-carboxamide]
10 | 0.5 | CC(C)n1nc(C(=O)NCc2ccc(NC(=O)N3CCN(C)CC3)c(F)c2)c2c1[C@@H](C)CN(c1ccc(C(=O)N3Cc4cccnc4C3)cn1)C2 [Example 612, (S)-5-(5-(6,7-dihydro-5H-pyrrolo[3,4-b]pyridine-6-carbonyl)pyridin-2-yl)-N-(3-fluoro-4-(4-methylpiperazine-1-carboxamido)benzyl)-1-isopropyl-7-methyl-4,5,6,7-tetrahydro-1H-pyrazolo[4,3-c]pyridine-3-carboxamide]
7 | 0.4 | CC(C)n1nc(C(=O)NCc2ccc(NC(=O)N3CCN(C)CC3)cc2)c2c1[C@@H](C)CN(c1ccc(C(=O)N3Cc4cccnc4C3)cc1)C2 [Example 614, (S)-5-(4-(6,7-dihydro-5H-pyrrolo[3,4-b]pyridine-6-carbonyl)phenyl)-1-isopropyl-7-methyl-N-(4-(4-methylpiperazine-1-carboxamido)benzyl)-4,5,6,7-tetrahydro-1H-pyrazolo[4,3-c]pyridine-3-carboxamide]
13 | 2 | CC(C)n1nc(C(=O)NCc2ccc(NC(=O)N3CCCN(C)CC3)cc2)c2c1[C@@H](C)CN(c1ccc(C(=O)N(C)C)cn1)C2 [Example 615, (S)-5-(5-(dimethylcarbamoyl)pyridin-2-yl)-1-isopropyl-7-methyl-N-(4-(4-methyl-1,4-diazepane-1-carboxamido)benzyl)-4,5,6,7-tetrahydro-1H-pyrazolo[4,3-c]pyridine-3-carboxamide]
6 | 1 | CC(C)n1nc(C(=O)NCc2ccc(NC(=O)N3CCC(N(C)C)CC3)cc2)c2c1[C@@H](C)CN(c1ccc(C(=O)N(C)C)cn1)C2 [Example 616, (S)-N-(4-(4-(dimethylamino)piperidine-1-carboxamido)benzyl)-5-(5-(dimethylcarbamoyl)pyridin-2-yl)-1-isopropyl-7-methyl-4,5,6,7-tetrahydro-1H-pyrazolo[4,3-c]pyridine-3-carboxamide]
502 | 178 | CC(C)n1nc(C(=O)NCc2ccc(C(=O)NCC3CCN(C)CC3)cc2)c2c1[C@@H](C)CN(c1ccc(C(=O)N(C)C)cc1)C2 [Example 617, (S)-5-(4-(dimethylcarbamoyl)phenyl)-1-isopropyl-7-methyl-N-(4-(((1-methylpiperidin-4-yl)methyl)carbamoyl)benzyl)-4,5,6,7-tetrahydro-1H-pyrazolo[4,3-c]pyridine-3-carboxamide]
612 | 127 | CC(C)n1nc(C(=O)NCc2ccc(C(=O)NCC3CCN(C)CC3)cc2)c2c1[C@@H](C)CN(c1ccc(C(=O)N(C)C)cn1)C2 [Example 618, (S)-5-(5-(dimethylcarbamoyl)pyridin-2-yl)-1-isopropyl-7-methyl-N-(4-(((1-methylpiperidin-4-yl)methyl)carbamoyl)benzyl)-4,5,6,7-tetrahydro-1H-pyrazolo[4,3-c]pyridine-3-carboxamide]
19 | 3 | CNC1CN(C(=O)Nc2ccc(CNC(=O)c3nn(C(C)C)c4c3CN(c3ccc(C(=O)N(C)C)cc3)C[C@@H]4C)cc2)C1 [Example 619, (S)-5-(4-(dimethylcarbamoyl)phenyl)-1-isopropyl-7-methyl-N-(4-(3-(methylamino)azetidine-1-carboxamido)benzyl)-4,5,6,7-tetrahydro-1H-pyrazolo[4,3-c]pyridine-3-carboxamide]
8 | 1 | CC(C)n1nc(C(=O)NCc2ccc(NC(=O)N3CCC(C4CCNCC4)CC3)cc2)c2c1[C@@H](C)CN(c1ccc(C(=O)N(C)C)cc1)C2 [Example 620, (S)-N-(4-([4,4′-bipiperidine]-1-carboxamido)benzyl)-5-(4-(dimethylcarbamoyl)phenyl)-1-isopropyl-7-methyl-4,5,6,7-tetrahydro-1H-pyrazolo[4,3-c]pyridine-3-carboxamide]
31 | 7 | CC(C)n1nc(C(=O)NCc2ccc(NC(=O)N3CC4(CCN4)C3)cc2)c2c1[C@@H](C)CN(c1ccc(C(=O)N(C)C)cc1)C2 [Example 621, (S)-N-(4-(1,6-diazaspiro[3.3]heptane-6-carboxamido)benzyl)-5-(4-(dimethylcarbamoyl)phenyl)-1-isopropyl-7-methyl-4,5,6,7-tetrahydro-1H-pyrazolo[4,3-c]pyridine-3-carboxamide]
16 | 4 | CC(C)n1nc(C(=O)NCc2ccc(NC(=O)N3CCC4(CCCNC4)CC3)cc2)c2c1[C@@H](C)CN(c1ccc(C(=O)N(C)C)cc1)C2 [Example 622, (S)-N-(4-((5-(4-(dimethylcarbamoyl)phenyl)-1-isopropyl-7-methyl-4,5,6,7-tetrahydro-1H-pyrazolo[4,3-c]pyridine-3-carboxamido)methyl)phenyl)-2,9-diazaspiro[5.5]undecane-9-carboxamide]
